How the values were obtained:
PKG-1α = PKG-1α nitration (IP, 3-NT immunoblot) in transfected HEK-293T cells; type: cell-based, human; conditions: SIN-1 500 μM, 30 min
Protocol: Cells were homogenized in 3× weight/volume of IP buffer (25 mM Hepes, pH 7.5, 150 mM NaCl, 1% NP-40, 10 mM MgCl2, 1 mM EDTA, 2% glycerol, supplemented with protease inhibitor). The homogenates were then centrifuged at 20,000 g at 4° C. for 20 min, the supernatant was collected, and the protein concentration was quantified by the Bio-Rad DC Protein Assay. To 1000 μg of total protein, 4 μg of antibody against PKG-1α was added; the volume was brought to 1 ml with IP buffer, and the mixture was incubated at 4° C. overnight. To precipitate the bound protein, 30 μl of protein G plus agarose suspension (EMD biosciences, Inc., San Diego, Calif.) was added, and the samples were incubated for 2 h at 4° C. To collect the bead-bound antibody, the samples were then centrifuged at 2000 g for 5 min at 4° C., the supernatant was removed, and the beads were washed 3× with 500 μl of IP buffer. To the samples, 30 μl of 2× Laemmli buffer was added, and the samples were boiled for 5 min and then resolved using 4-20% Tris-SDS-Hepes PAGE. The membrane was then probed for 3-nitrotyrosine (1:100 dilution), as described above. The IP efficiency was normalized by re-probing for PKG-1α (1:500).
To determine the role of tyrosine 247 and tyrosine 425 in mediating the nitration dependent inhibition of PKG-1α kinase activity, Y247F- and Y425F-PKG-1α mutants were generated and expressed in HEK-293T cells. HEK-293T cells were transiently transfected with expression plasmids containing WT-, Y247F-, or Y425F-PKG-1α for 48 h. […] Protein extracts were immunoprecipitated using an antibody raised against PKG-1α and the level of nitrated PKG-1α determined by probing the membranes with an antiserum raised against 3-NT. The blots were then stripped and re-probed for PKG-1α to normalize for the efficiency of the immunoprecipitation.

[1] = tested on: pulmonary artery smooth muscle cells (PASMC); assay: PASMC immunocytochemistry for SM22-α and PCNA; type: cell-based, lamb; conditions: SIN-1 500 μM, 48 h
Protocol: Semi-confluent PASMC grown on a coverslip in a 6-well plate were transfected with a mammalian expression plasmid containing either a wild-type (WT)- or Y247F-PKG-1α cDNA. After 20 h, the cells were serum starved (1% FBS) for 4 h then exposed or not to SIN-1 (500 μM) for 48 h. The cells were washed with PBS, methanol fixed (5 min), and permeabilized in 0.1% PBS-Tween (20 min). The cells were then washed 3× with PBS and blocked for non-specific protein-protein interactions with 1% BSA in PBS (1 h). The antibodies, smooth muscle (SM) 22-α (5 μg/ml) or proliferating cell nuclear antigen (PCNA) (1 μg/ml) diluted in 1% BSA in PBS, were added and incubated overnight at 4° C. The cells were again washed 3× with PBS and incubated in secondary antibody (green): Alexa Fluor 488 goat anti-mouse IgG (H+L) (1/1000 dilution) for PCNA or Alexa Fluor 488 donkey anti-goat IgG (H+L) (1/1000 dilution) for SM22-α for 1 h in the dark. DAPI was used to stain the cell nuclei (blue) at a concentration of 0.5 μg/ml for 3 min. The cells were rinsed 3× with PBS, and the coverslips were mounted on the slides with ProLong Gold Antifade and analyzed with the use of a Nikon Eclipse TE 300 inverted fluorescent microscope with a 60× oil objective and a Hamamatsu digital camera.
To assess the effect of nitration on pulmonary arterial smooth muscle cell (PASMC) phenotype, PASMC were transiently transfected with expression plasmids containing WT-PKG-1α, Y247F-PKG-1α, or PDEST40 (as a control) for 20 h. Cells were then exposed or not to SIN-1 (500 μM, 48 h) and the effect on synthetic and contractile markers determined. The levels of myosin heavy chain (MYH, FIG. 3A), Calponin-1 (FIG. 3B), and Vimentin (FIG. 3C) were determined. The blots were then stripped and re-probed for β-actin to normalize for protein loading. PASMC were also subjected to immunohistochemistry using antibodies to SM22-α (5 μg/ml) and PCNA (1 μg/ml). Relevant secondary antibodies linked to Alexa Fluor 488 (green) were then applied. DAPI was also used to stain (blue) the cell nuclei.

“3-morpholinosydnonimine N-ethylcarbamide [SIN-1]” was tested, and the “nitration of PKG-1α (3-NT/PKG-1α)” value (PKG-1α; HEK-293T expressing WT-PKG-1α) was “significantly increased”, the “nitration of PKG-1α (3-NT/PKG-1α)” value (PKG-1α; HEK-293T expressing Y247F-PKG-1α) was “no significant increases” and the “nitration of PKG-1α (3-NT/PKG-1α)” value (PKG-1α; HEK-293T expressing Y425F-PKG-1α) was “no significant increases”. For the same substance, the PCNA staining ([1]; WT-PKG-1α expressing PASMC) was “increased”, the SM-22α expression ([1]; WT-PKG-1α expressing PASMC) was “attenuated” and the “filamentous SM22-α expression and nuclear staining of PCNA” value ([1]; Y247F-PKG-1α expressing PASMC) was “unaffected”.
